Results from US11814370B2, “Deuterated N-(5-(2,3-dihydrobenzo[b][1,4]dioxine-6-carboxamido)-2-fluorophenyl)-2-((4-ethylpiperazin-1-yl)methyl)quinoline-6-carboxamide” (priority 2016, dated 2023).

Legend:
[1] = tested on: SK-OV-3 ovarian cancer cell line; assay: cells; assay type: cell-based; details: Homo sapiens, SK-OV-3, 96 h, read-out: SK-OV-3 pGI50 ± SEM (n) (converted)
Experimental: Cells were grown in DMEM/10% FCS, 2 mM glutamine and nonessential amino acids in 5% CO2.
In Vitro Cell Viability Assay
The cell titer blue viability (CTB) (Promega) assay provides a homogenous, fluorometric method for estimating the number of viable cells. It uses the dark blue indicator dye resazurin to measure the metabolic capacity of cells which is an indicator of cell viability. Viable cells are able to reduce resazurin into resorufin (pink), which is highly fluorescent. […] Compounds (at a range of concentrations) were added using the ECHO 550 liquid handler (Labcyte, USA) and then left at 37° C. for 96 h. Titre blue reagent was added to each well and left at 37° C. for 3-4 h. Fluorescence was measured using the Envision machine (Perkin Elmer, UK). The 50% growth inhibitory concentration (GI50) was determined by fitting the data to a dose-response curve without limits using non-linear regression. Each concentration was tested twice.

[2] = tested on: HSP72 induction (product of HSF1 transcriptional activity) in SK-OV-3 cells; assay: Cell-based ELISA (Cellisa) for HSP72 expression after 17-AAG; set-up: species or system human; details: SK-OV-3 ovarian cancer cell line; summary of Table 1
Experimental: Prior to use, the cells were analyzed by short tandem repeat (STR) profiling. Polymorphic STR loci were amplified using a polymerase chain reaction (PCR) primer set. The PCR product (each locus being labelled with a different fluorophore) was analyzed simultaneously with size standards using automated fluorescent detection. The number of repeats at 10 different loci (as recommended by the American Type Culture Collection, ATCC) was used to define the STR profile and this was cross-referenced with online databases to confirm authenticity. […] The cells were free of mycoplasma contamination as determined by a sensitive nested PCR protocol (Venor GeM kit, Minerva Biolabs, Germany). Cells were grown in DMEM/10% FCS, 2 mM glutamine and nonessential amino acids in 5% CO2.
Cell-Based ELISA (Cellisa) for HSP72 Expression
To follow HSP72 protein expression, a product of HSF1 transcriptional activity, the Cellisa was developed. […] The medium was removed and cells were fixed with fixing solution (4% paraformaldehyde, 0.3% TritonX-100 in PBS buffer) for 30 min at 4° C. The plates were then washed with 0.1% Tween-20/deionized water, before blocking with 5% milk for 30 mins at 37° C. […] Following 4× washes, the plates were incubated with europium-labelled anti-mouse antibody (0.6 μg/mL) in Delfia assay buffer (Perkin Elmer) for 1 h at 37° C. […]

GI50 [1]	SMILES	cellular activity (in words) [2]
18.2 nM	[2H]C1([2H])N(CC)C([2H])([2H])C([2H])([2H])N(Cc2ccc3cc(C(=O)Nc4cc(NC(=O)c5ccc6c(c5)OCCO6)ccc4F)ccc3n2)C1([2H])[2H] [Compound B, N-(5-(2,3-Dihydrobenzo[b][1,4]dioxine-6-carboxamido)-2-fluorophenyl)-2-((4-ethyl-piperazin-d8-1-yl)methyl)quinoline-6-carboxamide]	
	[2H]C([2H])([2H])C([2H])([2H])N1CCN(Cc2ccc3cc(C(=O)Nc4cc(NC(=O)c5ccc6c(c5)OCCO6)ccc4F)ccc3n2)CC1 [Compound A, N-(5-(2,3-Dihydrobenzo[b][1,4]dioxine-6-carboxamido)-2-fluorophenyl)-2-((4-ethyl-d5-piperazin-1-yl)methyl)quinoline-6-carboxamide]	potent cellular activity
11.5 nM	[2H]C1([2H])Oc2ccc(C(=O)Nc3ccc(F)c(NC(=O)c4ccc5nc(CN6CCN(CC)CC6)ccc5c4)c3)cc2OC1([2H])[2H] [Compound C, N-(5-(2,3-Dihydrobenzo-d4-[b][1,4]dioxine-6-carboxamido)-2-fluorophenyl)-2-((4-ethylpiperazin-1-yl)methyl)quinoline-6-carboxamide]	
